# Assay results published in ChEMBL document CHEMBL2074198, “Influence of passive permeability on apparent P-glycoprotein kinetics” (Pharm Res, 2000).
# What was measured:
# [1] = molecular target: T1, ATP-dependent translocase ABCB1 (Homo sapiens, UniProt P08183); test: TP_TRANSPORTER: inhibition of Vinblastine transepithelial transport (basal to apical)(Vinblastine: 0.004 uM, Nicardipine: 60 uM) in Caco-2 cells; format: functional, cell-based; details: caco-2, 60 µM
# [2] = molecular target: T1, ATP-dependent translocase ABCB1; test: TP_TRANSPORTER: inhibition of Vinblastine transepithelial transport (basal to apical) (Vinblastine: 0.004 uM, […]: 3000 uM) in Caco-2 cells; format: functional, cell-based; details: caco-2, 3000 µM
# T1 sequence (P08183 whole entry): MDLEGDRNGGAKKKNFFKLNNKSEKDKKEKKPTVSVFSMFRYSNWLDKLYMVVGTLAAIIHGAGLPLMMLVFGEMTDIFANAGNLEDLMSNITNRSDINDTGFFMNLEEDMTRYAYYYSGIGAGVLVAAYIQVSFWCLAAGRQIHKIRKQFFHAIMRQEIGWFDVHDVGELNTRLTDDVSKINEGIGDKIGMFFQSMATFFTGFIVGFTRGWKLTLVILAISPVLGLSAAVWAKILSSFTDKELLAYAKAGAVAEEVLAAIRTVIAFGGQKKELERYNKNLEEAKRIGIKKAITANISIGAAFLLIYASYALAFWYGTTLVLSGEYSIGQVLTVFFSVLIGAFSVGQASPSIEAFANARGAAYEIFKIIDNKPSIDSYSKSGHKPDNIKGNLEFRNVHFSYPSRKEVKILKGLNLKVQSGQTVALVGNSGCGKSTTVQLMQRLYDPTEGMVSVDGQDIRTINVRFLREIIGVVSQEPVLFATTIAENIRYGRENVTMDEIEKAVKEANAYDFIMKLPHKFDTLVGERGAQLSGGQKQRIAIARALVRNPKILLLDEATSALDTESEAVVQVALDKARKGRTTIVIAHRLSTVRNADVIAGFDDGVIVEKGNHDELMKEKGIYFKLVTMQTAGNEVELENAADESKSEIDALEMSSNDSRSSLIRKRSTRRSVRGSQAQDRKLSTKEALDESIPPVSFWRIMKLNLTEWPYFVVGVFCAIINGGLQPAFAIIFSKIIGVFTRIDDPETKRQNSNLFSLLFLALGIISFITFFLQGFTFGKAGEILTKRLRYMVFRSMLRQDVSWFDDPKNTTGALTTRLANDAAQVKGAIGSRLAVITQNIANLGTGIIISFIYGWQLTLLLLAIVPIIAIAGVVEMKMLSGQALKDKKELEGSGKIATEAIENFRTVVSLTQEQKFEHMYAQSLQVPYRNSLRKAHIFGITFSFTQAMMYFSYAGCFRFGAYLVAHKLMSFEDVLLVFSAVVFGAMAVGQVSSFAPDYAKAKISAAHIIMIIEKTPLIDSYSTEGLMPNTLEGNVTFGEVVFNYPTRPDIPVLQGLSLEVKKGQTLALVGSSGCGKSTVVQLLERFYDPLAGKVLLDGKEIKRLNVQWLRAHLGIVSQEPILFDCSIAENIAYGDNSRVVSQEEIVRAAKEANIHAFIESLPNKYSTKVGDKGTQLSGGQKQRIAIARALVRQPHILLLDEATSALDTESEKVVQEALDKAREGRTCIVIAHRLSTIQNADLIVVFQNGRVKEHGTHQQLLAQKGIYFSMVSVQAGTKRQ
Activity [1],Activity [2],Structure (SMILES)
inhibitor [+],,COC(=O)C1=C(C)NC(C)=C(C(=O)OCCN(C)Cc2ccccc2)C1c1cccc([N+](=O)[O-])c1 (configuration not stated) [NICARDIPINE]
,inhibitor [+],CNC(=C[N+](=O)[O-])NCCSCc1ccc(CN(C)C)o1 [RANITIDINE]
